Common to all, as to assay: growth of human tumour cells (NCI), 48 h
For assay [1], the system named is SF-539 CNS.
Assay [2] relates to HCC-2998 colon.
Assay [3] has as its system M14 melanoma.
Assay [4] relates to COLO 205 colon.
Assay [5] relates to SF-268 CNS.
The test system of assay [6] is SNB-19 CNS.
Assay [7] relates to OVCAR-4 ovarian.
Assay [8] relates to NCI-H460 lung.
Assay [9] deals with K-562 leukemia.
In assay [10] the test system is ACHN renal.

SMILES strings stand for the structures. “And” between values parts separate entries of the source, which are not always exact repeats. Equal values may be shown once.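 Compound exposure: 48 hours, 5 concentrations, 96-well plates. GI50: concentration for 50% inhibition of growth. TGI marks complete inhibition of growth.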

Turning to `COC(=O)C1=COC(C)C2CN3CCc4c([nH]c5cc(OC)c(OC)cc45)C3CC12` (configuration not stated), the TGI in assay [1] was > 100 µM; in [2] it was > 100 µM; in [3], > 100 µM; in [4] it was > 100 µM and 86.6 µM; in assay [5] it was > 100 µM; in assay [6], > 100 µM. Besides, the TGI in assay [7], in [8], in assay [9] and in assay [10] was > 100 µM in each case. For the same compound, the GI50 is 89.4 µM and 34.3 µM in [7]; 67.1 µM and 22.4 µM in assay [8].
In the case of `COc1ccc(Cn2cc3c(c2-c2ccccc2)CCc2cnoc2-3)cc1OC`, the GI50 is 1.02 µM in [1]; 2.19 µM in assay [2]; 0.566 µM in assay [3]; 0.55 µM in [4]; 3.68 µM in assay [5]; 2.79 µM in assay [6]. Further, the GI50 in assay [7] was 3.56 µM; in [8], 0.457 µM; in assay [9], 0.33 µM; in assay [10] it was 2.83 µM. For the same compound, the TGI is 5.6 µM in assay [1]; > 100 µM in assay [2]; > 100 µM in [3]; 3.81 µM in assay [4]; > 100 µM in assay [5]; > 100 µM in assay [6]. Also, the TGI in [7], in [8], in assay [9] and in assay [10] was > 100 µM throughout.
Take `C[C@@H]1CCC([C@@H](C)[C@H]2CC[C@H]3[C@@H]4CC[C@H]5C[C@@H](O)CC[C@]5(C)[C@H]4CC[C@]23C)=NC1`: the TGI was > 100 µM in assay [1]; 55.4 µM in assay [2]; > 48.9 µM in [3]; > 53.2 µM in assay [4]; > 100 µM in assay [5]; > 100 µM in assay [6]. Besides, the TGI in assay [7] was > 100 µM; in [8], 48.9 µM; in assay [9], > 100 µM; in [10] it was > 61.5 µM.
For `CCCCCCCCCCCCSC1=C(Cl)C(=O)C(OC)=C(OC)C1=O`, the GI50 in assay [1] was 2.81 µM; in [2], 2.41 µM; in assay [3], 2.53 µM; in assay [4], 4.32 µM; in assay [5], 3.08 µM; in assay [6], 3.64 µM. Moreover, the GI50 in [7] was 3.81 µM; in assay [8] it was 2.15 µM; in assay [9] it was 0.205 µM; in assay [10], 1.52 µM. Further, the TGI in [1] worked out at 11.9 µM; in assay [2] it was 10.9 µM; in [3], 18.4 µM; in assay [4] it was 18.4 µM; in assay [5], 16.1 µM; in assay [6], 15 µM. Further, the TGI in assay [7] was 26.6 µM; in assay [8], 11.1 µM; in [9], > 40 µM; in assay [10], 18.2 µM.

Source of the values: PubChem BioAssay (NCI).
